Experimental findings from patent US7754709B2 (Solvay Pharmaceuticals BV, priority 2003, dated 2010) are described below.

A word on the inhibition: it is the drop in the measured response relative to a control, in per cent.

Common to all, as to type: cell-based
The target of test [1] is T1, 17β-hydroxysteroid dehydrogenase type 2 (Homo sapiens, UniProt P37059).
T1 construct: expressed in transfected cells; host or cells: MCF-7
T1 sequence (P37059 1-387): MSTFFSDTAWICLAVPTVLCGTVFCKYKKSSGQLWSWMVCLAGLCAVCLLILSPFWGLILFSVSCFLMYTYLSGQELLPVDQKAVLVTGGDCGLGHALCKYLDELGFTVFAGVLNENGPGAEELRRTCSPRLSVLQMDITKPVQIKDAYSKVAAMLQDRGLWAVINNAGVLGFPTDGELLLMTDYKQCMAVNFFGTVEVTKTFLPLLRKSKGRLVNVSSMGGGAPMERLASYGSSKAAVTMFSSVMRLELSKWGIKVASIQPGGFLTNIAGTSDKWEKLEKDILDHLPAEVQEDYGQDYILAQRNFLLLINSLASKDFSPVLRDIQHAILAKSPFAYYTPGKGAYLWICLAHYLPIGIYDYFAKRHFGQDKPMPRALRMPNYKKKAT
The test can be described thus: Inhibition of 17β-HSD type 2 in MCF-7 cells stably expressing the isoenzyme (HPLC, tritium labeled estradiol). As to conditions: 2 nM estradiol, read-out: % Inhibition of the 17β-HSD enzyme type 2 (HSD2); for inhibition at 1 µM: MCF7, 1 μM compound; for inhibition at 10 µM: MCF7, 10 μM compound. The source says:
(§1) Biological Testing Materials and Methods 1. Inhibition of the 17β-hydroxysteroid dehydrogenase type 1, type 2 and type 3 enzyme
(§2) The compounds were screened in respect of 17β-HSD enzyme activity in vitro on established M CF-7 cell lines, each stably expressing one of the respective 17β-HSD isoenzymes. The interconversion of substrate by each isoenzyme and the 17β-HSD inhibiting activity of chemical compounds in these cell lines were detected by HPLC system.
(§3) Varying amounts of the test compounds were incubated in the growth medium of the 17β-HSD expressing cells together tritium labeled substrate (2 nM estrone for 17β-HSD type 1; 2 nM estradiol for 17β-HSD type 2; and 2 nM androstenedione for 17β-HSD type 3). The medium samples were removed after exact incubation time and the reaction is stopped by trichloroacetic acid (TCA). The samples were analyzed by HPLC-coupled flow scintillation analysis.
(§4) For each enzyme type, the HSD-inhibiting activity of an individual test compound was calculated by comparing the conversion of a control sample without any test compound (referred to as “Negative Control”) to the (reduced) conversion of the test sample containing the particular compound to be tested (referred to as “Test Sample”).
(§5) Two concentrations of each compound were used. The number of the compound refers to the numbers indicated in the Experimental Section.

The target of test [2] is T2, 17β-hydroxysteroid dehydrogenase type 1 (Homo sapiens, UniProt P14061).
T2 construct: expressed in transfected cells; host or cells: MCF-7
T2 sequence (P14061 1-328): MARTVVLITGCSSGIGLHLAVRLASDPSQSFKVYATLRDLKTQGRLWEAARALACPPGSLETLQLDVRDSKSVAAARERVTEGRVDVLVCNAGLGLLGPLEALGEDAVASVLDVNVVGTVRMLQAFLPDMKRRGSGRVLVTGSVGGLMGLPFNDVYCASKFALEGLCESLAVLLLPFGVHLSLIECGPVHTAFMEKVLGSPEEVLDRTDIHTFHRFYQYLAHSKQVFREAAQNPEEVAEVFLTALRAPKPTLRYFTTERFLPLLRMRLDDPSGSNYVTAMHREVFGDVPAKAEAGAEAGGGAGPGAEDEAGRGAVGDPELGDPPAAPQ
The test can be described thus: Inhibition of 17β-HSD type 1 in MCF-7 cells stably expressing the isoenzyme (HPLC, tritium labeled estrone). As to conditions: 2 nM estrone; for inhibition at 1 µM: MCF7, 1 μM compound; for inhibition at 1 µM / inhibition at 10 µM: read-out: % Inhibition of the 17β-HSD enzyme type 1 (HSD1); for inhibition at 10 µM: MCF7, 10 μM compound.
From the text: as §1, §2, §3, §4, §5

Test [3] concerns the target T3, 17β-hydroxysteroid dehydrogenase type 3 (Homo sapiens, UniProt P37058).
T3 construct: expressed in transfected cells; host or cells: MCF-7
T3 sequence (P37058 1-310): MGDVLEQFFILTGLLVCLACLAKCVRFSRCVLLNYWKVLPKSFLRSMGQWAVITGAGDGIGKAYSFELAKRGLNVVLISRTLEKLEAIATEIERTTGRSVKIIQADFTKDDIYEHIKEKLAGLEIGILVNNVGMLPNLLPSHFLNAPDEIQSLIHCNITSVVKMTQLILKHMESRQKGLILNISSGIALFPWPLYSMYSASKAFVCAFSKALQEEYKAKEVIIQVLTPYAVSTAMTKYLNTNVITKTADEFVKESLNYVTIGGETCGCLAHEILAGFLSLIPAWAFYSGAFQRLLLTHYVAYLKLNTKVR
The test can be described thus: Inhibition of 17β-HSD type 3 in MCF-7 cells stably expressing the isoenzyme (HPLC, tritium labeled androstenedione). Particulars: 2 nM androstenedione; for inhibition at 1 µM: MCF7, 1 μM compound; for inhibition at 1 µM / inhibition at 10 µM: read-out: % Inhibition of the 17β-HSD enzyme type 3 (HSD3); for inhibition at 10 µM: MCF7, 10 μM compound.
From the text: as §1, §2, §3, §4, §5

Where “and” joins values, the source holds several entries; their conditions need not be identical. Identical values can stand only once.

In the case of `O=c1c2c3c(sc2nc2n1CCCCC2)CCCC3` [Compound 2a, 2,3,4,7,8,9,10,11-Octahydro[1]benzothieno[2′,3′:4,5]pyrimido-[1,2-a]azepin-13(1H)-one], the inhibition at 1 µM in test [1] is 16.2%; in test [2], 10%; in test [3], 39%. Further, the inhibition at 10 µM in test [1] amounted to 23.4%; in test [2], 45.9%; in test [3], 24.9%.
For `O=c1c2c3c(sc2nc2n1CCCCC2)CCC3` [Compound 2b, 1,2,3,6,7,8,9,10-Octahydro-12H-cyclopenta[4′,5′]thieno[2′,3′:4,5]pyrimido[1,2-a]-azepin-12-one], the inhibition at 1 µM in test [1] was 15.9%; in test [2], 21%; in test [3], 4.2%. Moreover, the inhibition at 10 µM in test [1] was determined as 21.4%; in test [2], 15%; in test [3], 9.5%.
As for `O=c1c2c3c(sc2nc2n1CCCCC2)CCCCC3` [Compound 2c, 1,2,3,4,5,8,9,10,11,12-Decahydro-14H-cyclohepta[4′,5′]thieno[2′,3′:4,5]pyrimido-[1,2-a]azepin-14-one], the inhibition at 1 µM stood at 8.9% in test [1], 22.7% in test [2] and 50.8% in test [3]. Besides, the inhibition at 10 µM in test [1] worked out at 13.5%; in test [2], 39.8%; in test [3], 47%.
Regarding `O=c1c2c3c(sc2nc2n1CCCC2)CCCC3` [Compound 2e, 1,2,3,4,7,8,9,10-Octahydro-12H-[1]benzothieno[2,3-d]pyrido[1,2-a]pyrimidin-12-one], the inhibition at 1 µM in test [1] was 26%; in test [2] it was 15.8%; in test [3], 46.8%. Besides, the inhibition at 10 µM in test [1] was 28.9%; in test [2] it was 20%; in test [3] it was 38.8%.
Regarding `O=c1c2c3c(sc2nc2n1CCC2)CCCC3` [Compound 2f, 2,3,6,7,8,9-Hexahydro[1]benzothieno[2,3-d]pyrrolo[1,2-a]pyrimidin-10(1H)-one], the values for the inhibition at 1 µM in test [1], in test [2] and in test [3] were 37%, 19.9% and 48.2%, respectively. Besides, the inhibition at 10 µM in test [1] was 32.4%; in test [2] it was 19.2%; in test [3], 40.4%.
`Cc1nc2sc3c(c2c(=O)n1C)CCCC3` [Compound 2g, 5,6,7,8-Tetrahydro-2,3-dimethyl[1]benzothieno[2,3-d]pyrimidin-4(3H)-one]: the inhibition at 1 µM in test [1] stood at 44.9%; in test [2], 30.7%; in test [3], 51.7%. For the same compound, the inhibition at 10 µM is 24.9% in test [1], 37% in test [2] and 51.3% in test [3].
`CCc1nc2sc3c(c2c(=O)n1C)CCCC3` [Compound 2i, 5,6,7,8-Tetrahydro-2-ethyl-3-methyl[1]benzothieno[2,3-d]pyrimidin-4(3H)-one]: the values for the inhibition at 1 µM in test [1], in test [2] and in test [3] were 20.6%, 12.7% and 4.4%, respectively. For the same compound, the inhibition at 10 µM in test [1] was 29.4%; in test [2] it was 18.5%; in test [3], 9.9%.
With `O=C1CCc2c1sc1nc3n(c(=O)c21)CCCCC3` [Compound 3b, 1,2,6,7,8,9,10-heptahydrocyclopenta[4′,5′]thieno[2′,3′:4,5]pyrimido[1,2-a]-azepin-3,12-dione], the inhibition at 1 µM in test [1] was found to be 14.1%; in test [2], 13.5%; in test [3], 0.3%. In addition, the figures for the inhibition at 10 µM in test [1], in test [2] and in test [3] were 25.4%, 20.7% and 13.7%, respectively.
In the case of `O=C1CCCc2c1sc1nc3n(c(=O)c21)CCCCCC3` [Compound 3d, 1,2,7,8,9,10,11,12-octahydro[1]benzothieno[2′,3′:4,5]pyrimido-[1,2-a]azocin-4, 14(3H)-dione], the values for the inhibition at 1 µM in test [1], in test [2] and in test [3] were 14.1%, 14.3% and 15.3%, respectively. The inhibition at 10 µM was 11.1% in test [1] and 42.9% in test [2]. Moreover, the “% Inhibition of the 17β-HSD enzyme type 1 (HSD1)” value in test [2] (1 μM compound) was determined as 18.2%; in test [2] (10 μM compound) it was 37.6%. Also, the “% Inhibition of the 17β-HSD enzyme type 3 (HSD3)” value in test [3] (1 μM compound) is 22.3%; in test [3] (10 μM compound), 16.7% and 8.1%.
On to `O=C1CCCc2c1sc1nc3n(c(=O)c21)CCCC3` [Compound 3e], for which the inhibition at 1 µM in test [1] came out at 25.7%; in test [2], 6.3%; in test [3], 38.5%. Besides, the figures for the inhibition at 10 µM in test [1], in test [2] and in test [3] were 16.3%, 35.8% and 47.4%, respectively.
On to `O=C1CCCc2c1sc1nc3n(c(=O)c21)CCC3` [Compound 3f, 2,3,8,9-Tetrahydro[1]benzothieno[2,3-d]pyrrolo[1,2-a]pyrimidine-6,10(1H,7H)-dione], for which the figures for the inhibition at 1 µM in test [1], in test [2] and in test [3] were 31.1%, 8.7% and 43.9%, respectively. For the same compound, the inhibition at 10 µM in test [1] was 21.8%; in test [2], 22%; in test [3], 40.2%.
In the case of `CC1CCc2c(sc3nc4n(c(=O)c23)CCCCC4)C1O` (stereo not drawn) [Compound 32, 4-Hydroxy-3-methyl-2,3,4,7,8,9,10,1-octahydro [1]benzothieno[2′,3′: 4,5]pyrimido-[1,2-a]azepin-13(1H)-one], in test [1], the inhibition at 1 µM was determined as 14% and the inhibition at 10 µM is -5.1%. Further, in test [2], the inhibition at 1 µM was 19.7% and the inhibition at 10 µM is 22.5%.
Taken in the same sequence, the figures for `CCCSC1=C(C=O)CCc2c1sc1nc3n(c(=O)c21)CCC(C(=O)O)CC3` (stereo not drawn) [Compound 33, 3-Formyl-1,2,7,8,9,10,11,13-octahydro-13-oxo-4-(propylthio)-[1]benzothieno[2′,3′: 4,5] pyrimido[1,2-a]azepine-9-carboxylic acid] were 5%, -0.1%, 15.3% and 22.6%.
For `CCCSC1=C(C=O)CCc2c1sc1nc3n(c(=O)c21)CCC(C)CC3` (stereo not drawn) [Compound 34, 9-Methyl-1,2,7,8,9,10,11,13-octahydro-13-oxo-4-(propylthio)-[1]benzothieno[2′,3′: 4,5]-pyrimido[1,2-a]azepine-3-carbaldehyde] the same measures were 13%, -0.5%, 14.9% and 48.1%.
